{
  "source": "patent US20160128990A1",
  "about": "“METHODS OF USING RIFAXIMIN IN POSITION EMISSION TOMOGRAPHY (PET) SCANS” (Salix Pharmaceuticals, Ltd, priority 2013, published 2016)",
  "type_in_all_cases": "in vivo, human",
  "key": {"[1]": {"tested_on": "physiologic FDG uptake in the intestinal tract", "assay": "PET-CT scan studies of intestinal FDG uptake with other rifaximin regimens (Examples 2-6)", "method": "Patients scheduled for clinically-indicated PET-CT scan are administered rifaximin 550 mg twice daily (BID) for five days prior to their scans. Each patient has their prior scheduled PET-CT used as control; that is, their prior PET-CT scan is evaluated as a pre-treatment baseline for intestinal FDG uptake (paired controls). The PET-CT scans of a randomly-selected cohort of patients also scheduled for clinically-indicated PET-CT during the same time period are used as independent controls. Cecal SUVMax (maximum-pixel-value standardized uptake value) and SUVAvg (average standardized uptake value) for all scans are measured by a radiologist blinded to treatment/control status and normalized to liver SUV, which is selected as the reference for normal tissue activity. A qualitative score of colonic uptake (0-4) is also assessed. Statistical analysis was performed by comparing mean SUV cecum/liver by paired t-test (pre & post) or unpaired t-test (treated & controls). The effect of rifaximin on a global measure of colonic SUV is also measured. Patients scheduled for clinically-indicated PET-CT scan are administered rifaximin 550 mg twice daily (BID) for seven days prior to their scans. Each patient has their prior scheduled PET-CT used as control; that is, their prior PET-CT scan is evaluated as a pre-treatment baseline for intestinal FDG uptake (paired controls). The PET-CT scans of a randomly-selected cohort of patients also scheduled for clinically-indicated PET-CT during the same time period are used as independent controls. Cecal SUVMax (maximum-pixel-value standardized uptake value) and SUVAvg (average standardized uptake value) for all scans are measured by a radiologist blinded to treatment/control status and normalized to liver SUV, which is selected as the reference for normal tissue activity. A qualitative score of colonic uptake (0-4) is also assessed. Statistical analysis was performed by comparing mean SUV cecum/liver by paired t-test (pre & post) or unpaired t-test (treated & controls). The effect of rifaximin on a global measure of colonic SUV is also measured. Patients scheduled for clinically-indicated PET-CT scan are administered rifaximin 550 mg twice daily (BID) for between 48 hours to five days prior to their scans. Each patient has their prior scheduled PET-CT used as control; that is, their prior PET-CT scan is evaluated as a pre-treatment baseline for intestinal FDG uptake (paired controls). […] Cecal SUVMax (maximum-pixel-value standardized uptake value) and SUVAvg (average standardized uptake value) for all scans are measured by a radiologist blinded to treatment/control status and normalized to liver SUV, which is selected as the reference for normal tissue activity. A qualitative score of colonic uptake (0-4) is also assessed. […] The effect of rifaximin on a global measure of colonic SUV is also measured. […] Each patient has their prior scheduled PET-CT used as control; that is, their prior PET-CT scan is evaluated as a pre-treatment baseline for intestinal FDG uptake (paired controls). […] Cecal SUVMax (maximum-pixel-value standardized uptake value) and SUVAvg (average standardized uptake value) for all scans are measured by a radiologist blinded to treatment/control status and normalized to liver SUV, which is selected as the reference for normal tissue activity. A qualitative score of colonic uptake (0-4) is also assessed. […]"}, "[2]": {"tested_on": "physiologic FDG uptake in the intestinal tract", "assay": "PET-CT scan study of intestinal FDG uptake after rifaximin pre-treatment (Example 1)", "method": "(§1) This example relates to a study to determine whether an oral antibiotic, rifaximin, administered prior to PET-CT scan can reduce physiologic FDG uptake in the intestinal tract. Thirty (30) patients scheduled for clinically-indicated PET-CT scans were enrolled to receive rifaximin 550 mg twice daily (BID) for two days prior to their scans. Each patient had their prior scheduled PET-CT used as control; that is, their prior PET-CT scan was evaluated as a pre-treatment baseline for intestinal FDG uptake (paired controls). The PET-CT scans of a randomly-selected cohort of 90 patients also scheduled for clinically-indicated PET-CT during the same time period were also used as controls (independent controls). All images were stripped of identifying data, and SUVMax (maximum-pixel-value standardized uptake value) and SUVAvg (average standardized uptake value) for all scans were measured by a radiologist blinded to treatment/control status and normalized to liver SUV, which was selected as the reference for normal tissue activity. A qualitative score of colonic uptake (0-4) was also assessed. Statistical analysis was performed by comparing mean SUV cecum/liver by paired t-test (pre & post) or unpaired t-test (treated & controls)."}, "[3]": {"assay": "Adverse events in the rifaximin-treated group (Example 1)", "settings": "rifaximin 550 mg BID for two days, 30 patients", "method": "as §1"}},
  "data": [
    {"compound": "CO[C@H]1/C=C/O[C@@]2(C)Oc3c(C)c(O)c4c(O)c(c5c(nc6cc(C)ccn65)c4c3C2=O)NC(=O)/C(C)=C\\C=C\\[C@H](C)[C@H](O)[C@@H](C)[C@@H](O)[C@@H](C)[C@H](OC(C)=O)[C@@H]1C", "note": "[rifaximin, (2S,16Z,18E,20S,21S,22R, 23R,24R,25S,26S,27S,28E)-5,6,21,23,25 Pentahydroxy-27-methoxy-2,4,11,16,20,22,24,26-octamethyl-2,7-(epoxypentadeca-(1,11,13)trienimino)benzofuro(4,5-e)pyrido(1,2,-a)benzimidazole-1,15(2H)-dione,25-acetate]", "values": [
      {"measurement": "FDG uptake compared to pre-rifaximin scan", "setting": "[1]; Example 2: 550 mg BID for five days prior to PET-CT scans", "result": "significant reduction"},
      {"measurement": "FDG uptake compared to pre-rifaximin scan", "setting": "[1]; Example 3: 550 mg BID for seven days prior to PET-CT scans", "result": "significant reduction"},
      {"measurement": "FDG uptake compared to pre-rifaximin scan", "setting": "[1]; Example 4: 550 mg BID for between 48 hours to 5 days prior to PET-CT scans", "result": "significant reduction"},
      {"measurement": "FDG uptake compared to pre-rifaximin scan", "setting": "[1]; Example 5: 1100 mg per day for 48 hours to seven days prior to PET-CT scans", "result": "significant reduction"},
      {"measurement": "FDG uptake compared to pre-rifaximin scan", "setting": "[1]; Example 6: solid dispersion with about 10 mg to about 100 mg rifaximin, once per day up to TID, 48 hours to seven days prior to PET-CT scans", "result": "significant reduction"},
      {"measurement": "OR for overall colonic SUV score <1", "setting": "[2]", "result": 3.8},
      {"measurement": "patients with no major change in cecal SUVmax/liver ratio after rifaximin", "setting": "[2]", "result": 14, "unit": "%"},
      {"measurement": "scans with overall colonic SUV score <1", "setting": "[2]", "result": 53, "unit": "%"},
      {"measurement": "difference (reduction) in cecal SUVmax / FDG activity in the cecum between pre- and post-rifaximin images", "setting": "[2]; 550 mg BID for two days, paired pre-rifaximin scans, p=0.002", "result": 26, "unit": "%"},
      {"measurement": "mean cecal SUVMax in patients whose SUVMax was >2 in their prior scan", "setting": "[2]; 550 mg, 48 h", "result": 3.4},
      {"measurement": "cecal SUVmax levels in patients with high baseline levels", "setting": "[2]; after 2 days of rifaximin pre-treatment", "result": "significantly lower levels"},
      {"measurement": "patients with higher cecal SUVmax/liver ratio post-rifaximin", "setting": "[2]; patients (n=27) with cecal SUVmax/liver ratio >2 in pre-rifaximin scans, 2/27", "result": 7, "unit": "%"},
      {"measurement": "patients with lower cecal SUVmax/liver ratio after rifaximin", "setting": "[2]; patients (n=27) with cecal SUVmax/liver ratio >2 in pre-rifaximin scans, 21/27, p=0.0005", "result": 78, "unit": "%"},
      {"measurement": "patients with down-grading of FDG signal intensity (overall colonic SUV signal)", "setting": "[2]; patients with an initial high cecal SUVMax, FIG. 4", "result": 80, "unit": "%"},
      {"measurement": "Normalized (mean) cecal SUVAvg", "setting": "[2]; post-rifaximin scan, 550 mg BID two days, 2.0 without rifaximin, p=0.02 paired t-test", "result": 1.6},
      {"measurement": "Mean colon SUVmax", "setting": "[2]; post-rifaximin scan, 550 mg BID two days, pre-rifaximin 4.0, p=0.7", "result": 3.8},
      {"measurement": "distribution of overall colonic SUV grades", "setting": "[2]; post-rifaximin scans, score 0-4 by blinded reader, FIG. 4", "result": "left-shift in the distribution of colonic SUV grades from higher to lower grades"},
      {"measurement": "mean cecal SUVMax, rifaximin-treated patients vs random control scans", "setting": "[2]; random control scans mean 4.2, no significant difference, p=0.2 unpaired t-test", "result": 3.4},
      {"measurement": "FDG uptake compared to pre-rifaximin scan", "setting": "[2]; rifaximin for 2 days prior to PET-CT scans", "result": "significant reduction"},
      {"measurement": "qualitative score of whole colonic uptake (0-4), mean", "setting": "[2]; rifaximin pre-treated group, reduced from 2.3, p=0.07", "result": 1.8},
      {"measurement": "overall percentage of patients with grade of colonic FDG intensity >1", "setting": "[2]; with rifaximin compared to without rifaximin, FIG. 4", "result": "lower"},
      {"measurement": "adverse events", "setting": "[3]", "result": "No adverse events were reported"}
    ]}
  ]
}
